Measurements reported in ChEMBL document CHEMBL5113515, “The Discovery of GSK3640254, a Next-Generation Inhibitor of HIV-1 Maturation” (J Med Chem, 2022).

Experiments:
[1] = system: Human immunodeficiency virus 1; assay: Antiviral activity against HIV1 harbouring V362I/V370A mutant infected in human MT2 cells measured after 4 to 5 days by dual-luciferase reporter assay; format: functional, organism-based; details: Human immunodeficiency virus 1, MT2
[2] = system: MT2; assay: Cytotoxicity in human MT2 cells assessed as reduction in cell viability; format: functional
[3] = AUC in rat at 5 mg/kg, po; format: ADME, organism-based; design: dose 5 mg/kg, route po; details: in vivo, read-out: AUC
[4] = system: Human immunodeficiency virus 1; assay: Antiviral activity against HIV1 harbouring T332S/V362I/prR41G mutant infected in human MT2 cells measured after 4 to 5 days by dual-luciferase reporter assay; format: functional, organism-based; details: Human immunodeficiency virus 1, MT2
[5] = system: Human immunodeficiency virus 1; assay: Antiviral activity against HIV1 harbouring deltaV370/T371A mutant infected in human MT2 cells measured after 4 to 5 days by dual-luciferase reporter assay; format: functional, organism-based; details: Human immunodeficiency virus 1, MT2
[6] = system: Human immunodeficiency virus 1; assay: Antiviral activity against HIV1 wild type NL (4 to 3) infected in human MT2 cells measured after 4 to 5 days by dual-luciferase reporter assay; format: functional, organism-based; details: Human immunodeficiency virus 1, MT2
[7] = system: Human immunodeficiency virus 1; assay: Antiviral activity against HIV1 wild type NL (4 to 3) infected in human MT2 cells measured after 4 to 5 days in presence of human serum by dual-luciferase reporter assay; format: functional, organism-based; details: Human immunodeficiency virus 1, MT2

Row | SMILES | EC50 [1] | CC50 [2] | AUC [3] | EC50 [4] | EC50 [5] | EC50 [6] | EC50 [7]
1 | C=C(C)[C@@H]1CC[C@]2(NCCN3CCS(=O)(=O)CC3)CC[C@]3(C)[C@H](CC[C@@H]4[C@@]5(C)CC=C(C6=CC7(C6)CC(C(=O)O)C7)C(C)(C)[C@@H]5CC[C@]43C)[C@@H]12 (stereo not given in full) | 48.5 nM | 10700 nM | 11.7 µM·h | 363 nM | 5.8 nM |  | 
2 | C=C(C)[C@@H]1CC[C@]2(NCCN3CCS(=O)(=O)CC3)CC[C@]3(C)[C@H](CC[C@@H]4[C@@]5(C)CC=C(C6=CC7C(C6)C7C(=O)O)C(C)(C)[C@@H]5CC[C@]43C)[C@@H]12 (stereo not given in full) | 657 nM | 6400 nM |  | 299 nM | 16.7 nM | 2.3 nM | 30.9 nM
3 | C=C(C)[C@@H]1CC[C@]2(NCCN3CCC(S(C)(=O)=O)CC3)CC[C@]3(C)[C@H](CC[C@@H]4[C@@]5(C)CC=C(C6=CCC(CF)(C(=O)O)CC6)C(C)(C)[C@@H]5CC[C@]43C)[C@@H]12 (stereo not given in full) |  | 12400 nM | 14.7 µM·h | 6.6 nM |  | 1.7 nM | 10.9 nM
4 | C=C(C)[C@@H]1CC[C@]2(NCCN3CCS(=O)(=O)CC3)CC[C@]3(C)[C@H](CC[C@@H]4[C@@]5(C)CC=C(C6=CCC(CC)(C(=O)O)CC6)C(C)(C)[C@@H]5CC[C@]43C)[C@@H]12 (stereo not given in full) |  | 27500 nM |  | 9.7 nM |  | 3.6 nM | 37.9 nM
5 | C=C(C)[C@@H]1CC[C@]2(NCCN3CCC(S(C)(=O)=O)CC3)CC[C@]3(C)[C@H](CC[C@@H]4[C@@]5(C)CC=C(C6=CCC(CC(F)F)(C(=O)O)CC6)C(C)(C)[C@@H]5CC[C@]43C)[C@@H]12 (stereo not given in full) |  | 7200 nM | 4.29 µM·h | 4 nM |  | 1.4 nM | 9.6 nM
6 | C=C(C)[C@@H]1CC[C@]2(NCCN3CCC(S(C)(=O)=O)CC3)CC[C@]3(C)[C@H](CC[C@@H]4[C@@]5(C)CC=C(C6=CCC(CO)(C(=O)O)CC6)C(C)(C)[C@@H]5CC[C@]43C)[C@@H]12 (stereo not given in full) | 1.2 nM | 9470 nM | 2.37 µM·h | 4.6 nM | 1 nM | 1.1 nM | 12.6 nM
7 | C=C(C)[C@@H]1CC[C@]2(NCCN3CCS(=O)(=O)CC3)CC[C@]3(C)[C@H](CC[C@@H]4[C@@]5(C)CC=C(C6=CCC(CC(=O)O)(C(=O)O)CC6)C(C)(C)[C@@H]5CC[C@]43C)[C@@H]12 (stereo not given in full) |  | 6400 nM |  | 14.1 nM |  | 3.5 nM | 135 nM
8 | C=C(C)[C@@H]1CC[C@]2(NCCN3CCS(=O)(=O)CC3)CC[C@]3(C)[C@H](CC[C@@H]4[C@@]5(C)CC=C(C6=CCC(CC7CC7)(C(=O)O)CC6)C(C)(C)[C@@H]5CC[C@]43C)[C@@H]12 (stereo not given in full) |  | 16200 nM |  | 54.1 nM |  | 4.5 nM | 48.5 nM
9 | C=C(C)[C@@H]1CC[C@]2(NCCN3CCC(S(C)(=O)=O)CC3)CC[C@]3(C)[C@H](CC[C@@H]4[C@@]5(C)CC=C(C6=CC[C@@](CF)(C(=O)O)CC6)C(C)(C)[C@@H]5CC[C@]43C)[C@@H]12 |  | 13400 nM | 19.1 µM·h | 8 nM | 5.8 nM | 1.9 nM | 18.3 nM
10 | C=C(C)[C@@H]1CC[C@]2(NCCN3CCS(=O)(=O)CC3)CC[C@]3(C)[C@H](CC[C@@H]4[C@@]5(C)CC=C(C6=CC7(C6)CC(C(=O)O)(C(=O)O)C7)C(C)(C)[C@@H]5CC[C@]43C)[C@@H]12 |  | > 30000 nM |  |  |  | 1.3 nM | 
11 | C=C(C)[C@@H]1CC[C@]2(NCCN3CCS(=O)(=O)CC3)CC[C@]3(C)[C@H](CC[C@@H]4[C@@]5(C)CC=C(C6=CCC(CCO)(C(=O)O)CC6)C(C)(C)[C@@H]5CC[C@]43C)[C@@H]12 (stereo not given in full) | 4.5 nM | 12700 nM |  | 15.9 nM | 5.3 nM | 4.6 nM | 85.8 nM
12 | C=C(C)[C@@H]1CC[C@]2(NCCN3CCC(S(C)(=O)=O)CC3)CC[C@]3(C)[C@H](CC[C@@H]4[C@@]5(C)CC=C(C6=CCC(CCCOC)(C(=O)O)CC6)C(C)(C)[C@@H]5CC[C@]43C)[C@@H]12 (stereo not given in full) |  | 12100 nM |  | 11.1 nM |  | 2 nM | 19.3 nM
13 | C=C(C)[C@@H]1CC[C@]2(NCCN3CCS(=O)(=O)CC3)CC[C@]3(C)[C@H](CC[C@@H]4[C@@]5(C)CC=C(C6=CCC(OC)(C(=O)O)CC6)C(C)(C)[C@@H]5CC[C@]43C)[C@@H]12 (stereo not given in full) |  | 13100 nM | 8.24 µM·h | 21.8 nM |  | 2.5 nM | 25 nM
14 | C=C(C)[C@@H]1CC[C@]2(NCCN3CCS(=O)(=O)CC3)CC[C@]3(C)[C@H](CC[C@@H]4[C@@]5(C)CC=C(C6=CCC(C(=O)O)(C(=O)O)CC6)C(C)(C)[C@@H]5CC[C@]43C)[C@@H]12 |  | 18600 nM |  | 292 nM |  |  | 
